PMC10796436, “Peptidyl nitroalkene inhibitors of main protease rationalized by computational and crystallographic investigations as antivirals against SARS-CoV-2” (Communications Chemistry, 2024)
Several values for one entry are separate records, joined by “and”; a condition that tells them apart may be missing. Equal entries are not always repeated.

Tests used:
[1] = Stability in TRIS buffer pH 7.5 by LCMS (warhead hydration); format: physicochemical
Procedure: (50 mM, pH 7.5), stored at ca. 30 °C and repeatedly analyzed by LCMS (stability in buffer). […]
Analysis was performed using Mestrenova. LCMS setup: Agilent 1100 series HPLC system coupled to an Agilent 1100 series LC/MSD Trap with electron spray ionization (ESI) , Agilent Poroshell 120 EC-C18, 150x2.10 mm, 4 μm column. A linear gradient was used for elution with a ternary pump using [water/ACN/water + 0.1% formic acid] that changes ratios from 80/10/10 to 0/90/10 over the course of 10 min (0.7 mL/min). Areas of peaks in the chromatogram (detection-λ = 326 nm) were used to calculate the change in concentrations. Retention time and mass spectrum recorded in positive ionization mode were used to assign species.
In preparation of experiments with longer incubation periods (metabolic stability, permeability etc.), first general stability in aqueous systems is to be assessed. For this, a TRIS/HCl buffer system at physiological pH was chosen.
In all measurements, only two relevant “species” of FGA146 are identifiable by mass spectrometry: m/z[M+H2O+H]+ = 504 with tR = 4.8 min and m/z[M+H]+ = 486 with tR = 5.1 min.
For quantification by UV AUC, 326 nm is used as detection wavelength. Wavelengths ≤255 nm are unsuitable since extinction coefficients of free and hydrated warhead seem to vastly differ.
Table 10. […] For exemplary depiction of chromatograms that were used to generate this table, compare Figure SX below. […]
tR = 4.8 min tR = 5.1 min m/z[M+H2O+H]+ = 504 m/z[M+H]+ = 486

DNMT2 = target: T1, DNMT2 (Homo sapiens, UniProt O14717); test: DNMT2 MST-displacement assay; format: binding; conditions: 100 μM
T1 sequence (O14717 1-391): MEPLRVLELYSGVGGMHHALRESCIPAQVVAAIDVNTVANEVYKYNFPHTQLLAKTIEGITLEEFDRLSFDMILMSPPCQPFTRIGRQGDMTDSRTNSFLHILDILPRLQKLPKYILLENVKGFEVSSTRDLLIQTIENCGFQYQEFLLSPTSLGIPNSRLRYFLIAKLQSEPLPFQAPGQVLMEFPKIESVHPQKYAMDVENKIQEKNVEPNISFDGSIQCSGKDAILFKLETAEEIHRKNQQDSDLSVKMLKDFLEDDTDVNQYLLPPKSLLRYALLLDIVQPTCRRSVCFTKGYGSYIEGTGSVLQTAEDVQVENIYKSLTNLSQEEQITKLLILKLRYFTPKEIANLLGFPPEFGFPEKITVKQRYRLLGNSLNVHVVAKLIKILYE
Procedure: DNMT2 MST-Displacement Assay. Assay was conducted according to literature 59. The average of quadruple measurements is depicted for two independent measurements each. The positive control was measured without DNMT2 to detect totally unbound FTAD, additionally Sinefungin (SFG), a literature described DNMT2 inhibitor, was used as a second positive control. SFG and FGA146 concentrations in this assay were 100 µM each.
Figure 26. Microscale Thermophoresis displacement experiment against DNMT2.
Other potential off-targets. A search in ChEMBL database for the term “nitroalkene” gave the following papers (excluded 2 synthesis papers using nitroalkenes as reactants) - https://doi.org/10.1021/acsmedchemlett.6b00276: Nitroalkenes against rhodesain and cruzain - https://doi.org/10.1021/jm900326c: Nitroalkene fatty acids against PPARγ - https://doi.org/10.1016/j.ejmech.2012.08.013: Nitroalkene as head group against minor groove binders (anti-infective)
Results one and three are irrelevant due to different organisms as targets. Restult 2 is unlikely to be important, as fatty acid structure deviates from peptidic structure of inhibitors under investigation […]

[2] = logP determination by HPLC; format: physicochemical; conditions: HPLC retention time
Procedure: experimental logP was determined. After unsuccessful evaluation by a classical extraction method
for determination, an HPLC-based estimation of hydrophobicity by retention time was utilized.
Following a publication60, a set of 9 compounds was chosen for preparing a calibration curve of
hydrophobicity indices and logPs.
λ = 254 nm, n = 1). Calibration of hydrophobicity was performed with a mixture of thiourea (Merck
Fisher Scientific, A12727.AP), Indole (Sigma Aldrich, W259306), Butyrophenone (Merck
1 mg/mL each in 50:50 [50 mM NH4OAc buffer pH 7.2/ACN]60 (n = 1). Analysis was performed
was used for elution with a binary pump using [50 mM NH4OAc buffer pH 7.2/ACN] (1 mL/min):
For calculation of unknown logP with this method, the following equation is used:
Signals at 6 and >14 min are due to impurities from
column that are detected in all measurements and are therefore not taken into account.

in vitro = conditions: human

COc1cccc2[nH]c(C(=O)N[C@@H](CC(C)C)C(=O)N[C@H](/C=C/[N+](=O)[O-])C[C@@H]3CCNC3=O)cc12 [FGA146]
equilibrium hydrated to free warhead ([1]; TRIS buffer pH 7.5, ca. 30 °C): 85/15 | time to 50% conversion to hydrated warhead ([1]; TRIS buffer pH 7.5, ca. 30 °C): 1 h | time until hydration equilibrium is reached ([1]; TRIS buffer pH 7.5, ca. 30 °C): 4 h | AUCpeak1/AUCTotal (hydrated, m/z 504) ([1]; t 0 h): 10% | AUCpeak2/AUCTotal (intact, m/z 486) ([1]; t 0 h): 90% | AUCpeak1/AUCTotal (hydrated, m/z 504) ([1]; t 0.25 h): 20% | AUCpeak2/AUCTotal (intact, m/z 486) ([1]; t 0.25 h): 80% | AUCpeak1/AUCTotal (hydrated, m/z 504) ([1]; t 0.5 h): 34% | AUCpeak2/AUCTotal (intact, m/z 486) ([1]; t 0.5 h): 66% | AUCpeak1/AUCTotal (hydrated, m/z 504) ([1]; t 1 h): 47% and 53% | AUCpeak2/AUCTotal (intact, m/z 486) ([1]; t 1 h): 47% and 53% | AUCpeak1/AUCTotal (hydrated, m/z 504) ([1]; t 3 h): 78% | AUCpeak2/AUCTotal (intact, m/z 486) ([1]; t 3 h): 22% | AUCpeak1/AUCTotal (hydrated, m/z 504) ([1]; t 4 h): 83% | AUCpeak2/AUCTotal (intact, m/z 486) ([1]; t 4 h): 17% | AUCpeak1/AUCTotal (hydrated, m/z 504) ([1]; t 5 h): 85% | AUCpeak2/AUCTotal (intact, m/z 486) ([1]; t 5 h): 15% | AUCpeak1/AUCTotal (hydrated, m/z 504) ([1]; t 7 h): 85% | AUCpeak2/AUCTotal (intact, m/z 486) ([1]; t 7 h): 14% | AUCpeak1/AUCTotal (hydrated, m/z 504) ([1]; t 30 h): 83% | AUCpeak2/AUCTotal (intact, m/z 486) ([1]; t 30 h): 14% | AUCpeak1/AUCTotal (hydrated, m/z 504) ([1]; t 31 h): 83% | AUCpeak2/AUCTotal (intact, m/z 486) ([1]; t 31 h): 14% | conversion to hydrated warhead ([1]; time to LCMS (<10 min)): 10% | displacement of FTAD from DNMT2 (DNMT2): non-binder | logPexp [2]: 2.0

CC(C)C[C@H](NC(=O)OCc1ccccc1)C(=O)N[C@H](/C=C/[N+](=O)[O-])C[C@@H]1CCNC1=O [FGA147]
CC50 (in vitro): > 100 µM
